The values that follow come from patent publication US20240287477A1, “CATALASE MIMETIC PEPTIDES” (Northwestern University, priority 2023, published 2024).

Format in all cases: cell-based
In one assay the test system is Fibronectin (FN1). The assay can be described thus: Western blot of mesenchymal marker Fibronectin in transformed cells, day 5. The following applies: 4-OHT treated only. Here is the method: (§1) FIG. 1A. REDOX effects promoted by peptidyl di-copper complex. (A) Oxidized (λex=[…]) and reduced (λex=[…]) roGFP2 signals 30 minutes after exposure to the metallocomplex (Day 1) and at the final of the experiment (Day 5) were measured and the oxidized/reduced ratio was obtained using ImageJ (shown as histogram). FIG. 1B. Representative images of MCF-10AER/cSrc transformation after treatment with 4-hydroxy-tamoxifen (1 μM) registered by Lionheart (phase contrast). FIG. 1C. Western blot analysis of E-Cadherin (E-Cad), Fibronectin (FN1), and Vimentin (Vim) in MCF-10AER/cSrc transformed cells (5 days after 4-OHT treatment). CATm1-peptidyl di-copper complex, as previously reported, DNK01-peptidyl di-copper complex with D-amino acids, sd-single dose, cd-daily doses.
(§2) Experiments were conducted during development of embodiments herein to measure the expression of EMT markers in this system at the end of the experiment (day 5). […] But in cells exposed only to 4-OHT, the levels dropped to almost 50% in comparison to the control cells. In the same FIGURE, the mesenchymal markers Vimentin and Fibronectin were also probed by western blot. […] Transformed cells, 4-OHT treated, expressed 3 times compared to control, and cells also treated with peptides in single doses.

The subject of the next assay is E-Cadherin (E-Cad). The experiment in a line: Western blot of epithelial marker E-cadherin in transformed cells, day 5. The following applies: cells exposed only to 4-OHT. Here is the method: as §1, §2
Background: In western blotting, separated proteins are transferred to a membrane and probed.

For another assay, the system named is MCF-10AER/cSrc. The assay can be described thus: Transformation (spiked shape) of cells after 4-hydroxy-tamoxifen, phase contrast imaging. The following applies: after 4-OHT (1 μM); either in single dose or every day. The procedure:
as §1
Another important observation was the delayed transformation of the cells in the system. After exposure to 4-OHT, cells acquired a spiked shape as soon as day 1 to day 2 (FIG. 1B). This process was delayed for two days when the cells were exposed to Cu^2+-CATm1 or Cu^2+-DNK01 either in single dose or every day.

The subject of assay [1] is MCF-10A ER/cSrc/NLS-Orp1-roGFP2 cells. The experiment in a line: Nuclear ROS by NLS-roGFP2-Orp1 oxidized/reduced ratio after 4-OHT exposure. To be noted: peptide 250 μM, CuSO4 500 μM; for ROS levels: day 5. Here is the method:
as §1
Lyophilized peptides were resuspended in MOPS buffer (30 mM, pH 7.5) to a concentration of 5 mM; a 50 mM copper solution was prepared in the same buffer. Both solutions were mixed in a 1:2 (peptide:copper) concentration 30 minutes before applying them to the cell culture. The final concentration of the complex in the cell culture was peptide at 250 μM and CuSO4 at 500 μM. The culture was monitored by measuring the ratio I(405/525)/I(488/525) given by the NLS-roGFP2-Orp1.
Exposure to 4-hydroxytamoxifen (4-OHT) transforms MCF-10A ER/cSrc/NLS-Orp1-roGFP2 cells into a tumorous cell line due to the oxidation of the nuclear compartment. Experiments were conducted by measuring the nuclear ROS in these cells. Probe oxidation status was monitored for 5 days after exposure to 4-OHT (FIG. 1A). […] It was not sufficient to keep the ROS levels as low as on day 1. This was due to a disruption of the complex and accumulation of free copper in the media.

Square brackets hold non-standard residues; d marks the D form. Ends that are not written are not given here.

On to 4-hydroxytamoxifen [4-OHT], for which the “Fibronectin expression compared to control” value in the assay on Fibronectin (FN1) is given as 3 times. The “E-cadherin levels in comparison to the control cells” value in the assay with E-Cadherin (E-Cad) was about 50%.

As for “dPdHdYdKdHdRdLdH ([dP][dH][dY][dK][dH][dR][dL][dH]; also: di-copper complex) [DNK01, peptidyl di-copper complex with D-amino acids]”, the “delay of transformation of the cells (spiked shape)” value with MCF-10AER/cSrc is recorded as “two”.

Consider “PHYKHRLH (also: di-copper complex) [CATm1, short peptidyl di-copper complex developed to mimic catalase, as previously reported]”, for which the “levels of nuclear oxidants” value in assay [1] (day 1, right after exposure (30 minutes), 4-OHT treated cells) is given as “lower levels of nuclear oxidants”. Besides, the results for the ROS levels result in assay [1] (presented everyday with fresh media) and in assay [1] (single dose in day 1) were “keep the ROS in lower levels” and “ROS levels increase”, respectively. Also, in the assay on MCF-10AER/cSrc, the “delay of transformation of the cells (spiked shape)” value was “two”.
